Experimental data published in patent US20150258059A1, “ANTIMICROBIAL AND RADIOPROTECTIVE COMPOUNDS” (BioDiem, Ltd, priority 2001, published 2015).

test system: Enterobacter aerogenes B-687; assay: Sensitivity of strains: suppression of growth; assay type: cell-based; conditions: Compound (1) 1.0%; antibiotics disc method

| Compound | Suppression of Growth (+/−) |
| --- | --- |
| NC[C@H]1O[C@H](O[C@H]2[C@H](O)[C@@H](O[C@H]3O[C@H](CO)[C@@H](O)[C@H](N)[C@H]3O)[C@H](N)C[C@@H]2N)[C@H](O)[C@@H](O)[C@@H]1O [Antibiotic 5, kanamycin] | − |

test system: Escherichia coli M-17; assay: Sensitivity of strains: suppression of growth; assay type: cell-based; conditions: Compound (1) 1.0%; antibiotics disc method

| Compound | Suppression of Growth (+/−) |
| --- | --- |
| NC[C@H]1O[C@H](O[C@H]2[C@H](O)[C@@H](O[C@H]3O[C@H](CO)[C@@H](O)[C@H](N)[C@H]3O)[C@H](N)C[C@@H]2N)[C@H](O)[C@@H](O)[C@@H]1O [Antibiotic 5, kanamycin] | + |

test system: Klebsiella pneumoniae M-248; assay: Sensitivity of strains: suppression of growth; assay type: cell-based; conditions: Compound (1) 1.0%; antibiotics disc method

| Compound | Suppression of Growth (+/−) |
| --- | --- |
| NC[C@H]1O[C@H](O[C@H]2[C@H](O)[C@@H](O[C@H]3O[C@H](CO)[C@@H](O)[C@H](N)[C@H]3O)[C@H](N)C[C@@H]2N)[C@H](O)[C@@H](O)[C@@H]1O [Antibiotic 5, kanamycin] | − |

test system: γ-hemolytic streptococcus B-672; assay: Sensitivity of strains: suppression of growth; assay type: cell-based; conditions: Compound (1) 1.0%; antibiotics disc method

| Compound | Suppression of Growth (+/−) |
| --- | --- |
| NC[C@H]1O[C@H](O[C@H]2[C@H](O)[C@@H](O[C@H]3O[C@H](CO)[C@@H](O)[C@H](N)[C@H]3O)[C@H](N)C[C@@H]2N)[C@H](O)[C@@H](O)[C@@H]1O [Antibiotic 5, kanamycin] | − |

test system: Acinetobacter B-676; assay: Sensitivity of strains: suppression of growth; assay type: cell-based; conditions: Compound (1) 1.0%; antibiotics disc method

| Compound | Suppression of Growth (+/−) |
| --- | --- |
| NC[C@H]1O[C@H](O[C@H]2[C@H](O)[C@@H](O[C@H]3O[C@H](CO)[C@@H](O)[C@H](N)[C@H]3O)[C@H](N)C[C@@H]2N)[C@H](O)[C@@H](O)[C@@H]1O [Antibiotic 5, kanamycin] | − |

test system: Citrobacter diversus B-678; assay: Sensitivity of strains: suppression of growth; assay type: cell-based; conditions: Compound (1) 1.0%; antibiotics disc method

| Compound | Suppression of Growth (+/−) |
| --- | --- |
| NC[C@H]1O[C@H](O[C@H]2[C@H](O)[C@@H](O[C@H]3O[C@H](CO)[C@@H](O)[C@H](N)[C@H]3O)[C@H](N)C[C@@H]2N)[C@H](O)[C@@H](O)[C@@H]1O [Antibiotic 5, kanamycin] | + |

test system: Acinetobacter B-677; assay: Sensitivity of strains: suppression of growth; assay type: cell-based; conditions: Compound (1) 1.0%; antibiotics disc method

| Compound | Suppression of Growth (+/−) |
| --- | --- |
| NC[C@H]1O[C@H](O[C@H]2[C@H](O)[C@@H](O[C@H]3O[C@H](CO)[C@@H](O)[C@H](N)[C@H]3O)[C@H](N)C[C@@H]2N)[C@H](O)[C@@H](O)[C@@H]1O [Antibiotic 5, kanamycin] | − |

test system: Staphylococci epidermidis D-513; assay: Sensitivity of strains: suppression of growth; assay type: cell-based; conditions: Compound (1) 1.0%; antibiotics disc method

| Compound | Suppression of Growth (+/−) |
| --- | --- |
| NC[C@H]1O[C@H](O[C@H]2[C@H](O)[C@@H](O[C@H]3O[C@H](CO)[C@@H](O)[C@H](N)[C@H]3O)[C@H](N)C[C@@H]2N)[C@H](O)[C@@H](O)[C@@H]1O [Antibiotic 5, kanamycin] | − |

test system: Enterobacter aerogenes B-679; assay: Sensitivity of strains: suppression of growth; assay type: cell-based; conditions: Compound (1) 1.0%; antibiotics disc method

| Compound | Suppression of Growth (+/−) |
| --- | --- |
| NC[C@H]1O[C@H](O[C@H]2[C@H](O)[C@@H](O[C@H]3O[C@H](CO)[C@@H](O)[C@H](N)[C@H]3O)[C@H](N)C[C@@H]2N)[C@H](O)[C@@H](O)[C@@H]1O [Antibiotic 5, kanamycin] | − |

test system: Staphylococcus aureus M-12159; assay: Sensitivity of strains: suppression of growth; assay type: cell-based; conditions: Compound (1) 1.0%; antibiotics disc method

| Compound | Suppression of Growth (+/−) |
| --- | --- |
| NC[C@H]1O[C@H](O[C@H]2[C@H](O)[C@@H](O[C@H]3O[C@H](CO)[C@@H](O)[C@H](N)[C@H]3O)[C@H](N)C[C@@H]2N)[C@H](O)[C@@H](O)[C@@H]1O [Antibiotic 5, kanamycin] | + |

test system: Staphylococcus aureus M-209; assay: Sensitivity of strains: suppression of growth; assay type: cell-based; conditions: Compound (1) 1.0%; antibiotics disc method

| Compound | Suppression of Growth (+/−) |
| --- | --- |
| NC[C@H]1O[C@H](O[C@H]2[C@H](O)[C@@H](O[C@H]3O[C@H](CO)[C@@H](O)[C@H](N)[C@H]3O)[C@H](N)C[C@@H]2N)[C@H](O)[C@@H](O)[C@@H]1O [Antibiotic 5, kanamycin] | + |

test system: Neisseria meningitidis M-6231; assay: Sensitivity of strains: suppression of growth; assay type: cell-based; conditions: Compound (1) 1.0%; antibiotics disc method

| Compound | Suppression of Growth (+/−) |
| --- | --- |
| NC[C@H]1O[C@H](O[C@H]2[C@H](O)[C@@H](O[C@H]3O[C@H](CO)[C@@H](O)[C@H](N)[C@H]3O)[C@H](N)C[C@@H]2N)[C@H](O)[C@@H](O)[C@@H]1O [Antibiotic 5, kanamycin] | − |

test system: Alkaligenes sp. B-667; assay: Sensitivity of strains: suppression of growth; assay type: cell-based; conditions: Compound (1) 1.0%; antibiotics disc method

| Compound | Suppression of Growth (+/−) |
| --- | --- |
| NC[C@H]1O[C@H](O[C@H]2[C@H](O)[C@@H](O[C@H]3O[C@H](CO)[C@@H](O)[C@H](N)[C@H]3O)[C@H](N)C[C@@H]2N)[C@H](O)[C@@H](O)[C@@H]1O [Antibiotic 5, kanamycin] | − |

test system: Conditional pathogenic enterobacteria gram-negative aerobic bacilli; assay: not given; assay type: cell-based; conditions: not given; also: key: + sensitive strains; + moderately sensitive strains; − stable strains

| Compound | Suppression of Growth (+/−) |
| --- | --- |
| NC[C@H]1O[C@H](O[C@H]2[C@H](O)[C@@H](O[C@H]3O[C@H](CO)[C@@H](O)[C@H](N)[C@H]3O)[C@H](N)C[C@@H]2N)[C@H](O)[C@@H](O)[C@@H]1O [Antibiotic 5, kanamycin] | − |

test system: β-hemolytic streptococcus B-624; assay: Sensitivity of strains: suppression of growth; assay type: cell-based; conditions: Compound (1) 1.0%; antibiotics disc method

| Compound | Suppression of Growth (+/−) |
| --- | --- |
| NC[C@H]1O[C@H](O[C@H]2[C@H](O)[C@@H](O[C@H]3O[C@H](CO)[C@@H](O)[C@H](N)[C@H]3O)[C@H](N)C[C@@H]2N)[C@H](O)[C@@H](O)[C@@H]1O [Antibiotic 5, kanamycin] | − |

test system: Alkaligenes sp. B-689; assay: Sensitivity of strains: suppression of growth; assay type: cell-based; conditions: Compound (1) 1.0%; antibiotics disc method

| Compound | Suppression of Growth (+/−) |
| --- | --- |
| NC[C@H]1O[C@H](O[C@H]2[C@H](O)[C@@H](O[C@H]3O[C@H](CO)[C@@H](O)[C@H](N)[C@H]3O)[C@H](N)C[C@@H]2N)[C@H](O)[C@@H](O)[C@@H]1O [Antibiotic 5, kanamycin] | + |

test system: Escherichia coli B-65; assay: Sensitivity of strains: suppression of growth; assay type: cell-based; conditions: Compound (1) 1.0%; antibiotics disc method

| Compound | Suppression of Growth (+/−) |
| --- | --- |
| NC[C@H]1O[C@H](O[C@H]2[C@H](O)[C@@H](O[C@H]3O[C@H](CO)[C@@H](O)[C@H](N)[C@H]3O)[C@H](N)C[C@@H]2N)[C@H](O)[C@@H](O)[C@@H]1O [Antibiotic 5, kanamycin] | + |

test system: Neisseria meningitidis M-A72; assay: Sensitivity of strains: suppression of growth; assay type: cell-based; conditions: Compound (1) 1.0%; antibiotics disc method

| Compound | Suppression of Growth (+/−) |
| --- | --- |
| NC[C@H]1O[C@H](O[C@H]2[C@H](O)[C@@H](O[C@H]3O[C@H](CO)[C@@H](O)[C@H](N)[C@H]3O)[C@H](N)C[C@@H]2N)[C@H](O)[C@@H](O)[C@@H]1O [Antibiotic 5, kanamycin] | − |

test system: Pseudomonas aeruginosa B-601; assay: Sensitivity of strains: suppression of growth; assay type: cell-based; conditions: Compound (1) 1.0%; antibiotics disc method

| Compound | Suppression of Growth (+/−) |
| --- | --- |
| NC[C@H]1O[C@H](O[C@H]2[C@H](O)[C@@H](O[C@H]3O[C@H](CO)[C@@H](O)[C@H](N)[C@H]3O)[C@H](N)C[C@@H]2N)[C@H](O)[C@@H](O)[C@@H]1O [Antibiotic 5, kanamycin] | + |

test system: Corynebacterium diphtheriae B-670; assay: Sensitivity of strains: suppression of growth; assay type: cell-based; conditions: Compound (1) 1.0%; antibiotics disc method

| Compound | Suppression of Growth (+/−) |
| --- | --- |
| NC[C@H]1O[C@H](O[C@H]2[C@H](O)[C@@H](O[C@H]3O[C@H](CO)[C@@H](O)[C@H](N)[C@H]3O)[C@H](N)C[C@@H]2N)[C@H](O)[C@@H](O)[C@@H]1O [Antibiotic 5, kanamycin] | − |

test system: Yersinia pseudotuberculosis; assay: not given; assay type: cell-based; conditions: Compound (1) 1.0%; antibiotics disc method

| Compound | Suppression of Growth (+/−) |
| --- | --- |
| NC[C@H]1O[C@H](O[C@H]2[C@H](O)[C@@H](O[C@H]3O[C@H](CO)[C@@H](O)[C@H](N)[C@H]3O)[C@H](N)C[C@@H]2N)[C@H](O)[C@@H](O)[C@@H]1O [Antibiotic 5, kanamycin] | − |

test system: Staphylococcus aureus B-674; assay: Sensitivity of strains: suppression of growth; assay type: cell-based; conditions: Compound (1) 1.0%; antibiotics disc method

| Compound | Suppression of Growth (+/−) |
| --- | --- |
| NC[C@H]1O[C@H](O[C@H]2[C@H](O)[C@@H](O[C@H]3O[C@H](CO)[C@@H](O)[C@H](N)[C@H]3O)[C@H](N)C[C@@H]2N)[C@H](O)[C@@H](O)[C@@H]1O [Antibiotic 5, kanamycin] | − |

test system: Acinetobacter B-681; assay: Sensitivity of strains: suppression of growth; assay type: cell-based; conditions: Compound (1) 1.0%; antibiotics disc method

| Compound | Suppression of Growth (+/−) |
| --- | --- |
| NC[C@H]1O[C@H](O[C@H]2[C@H](O)[C@@H](O[C@H]3O[C@H](CO)[C@@H](O)[C@H](N)[C@H]3O)[C@H](N)C[C@@H]2N)[C@H](O)[C@@H](O)[C@@H]1O [Antibiotic 5, kanamycin] | − |

test system: Klebsiella pneumoniae M-A21; assay: Sensitivity of strains: suppression of growth; assay type: cell-based; conditions: Compound (1) 1.0%; antibiotics disc method

| Compound | Suppression of Growth (+/−) |
| --- | --- |
| NC[C@H]1O[C@H](O[C@H]2[C@H](O)[C@@H](O[C@H]3O[C@H](CO)[C@@H](O)[C@H](N)[C@H]3O)[C@H](N)C[C@@H]2N)[C@H](O)[C@@H](O)[C@@H]1O [Antibiotic 5, kanamycin] | − |

test system: Staphylococcus aureus B-685; assay: Sensitivity of strains: suppression of growth; assay type: cell-based; conditions: Compound (1) 1.0%; antibiotics disc method

| Compound | Suppression of Growth (+/−) |
| --- | --- |
| NC[C@H]1O[C@H](O[C@H]2[C@H](O)[C@@H](O[C@H]3O[C@H](CO)[C@@H](O)[C@H](N)[C@H]3O)[C@H](N)C[C@@H]2N)[C@H](O)[C@@H](O)[C@@H]1O [Antibiotic 5, kanamycin] | + |

test system: Staphylococcus epidermidis BK-30; assay: Sensitivity of strains: suppression of growth; assay type: cell-based; conditions: Compound (1) 1.0%; antibiotics disc method

| Compound | Suppression of Growth (+/−) |
| --- | --- |
| NC[C@H]1O[C@H](O[C@H]2[C@H](O)[C@@H](O[C@H]3O[C@H](CO)[C@@H](O)[C@H](N)[C@H]3O)[C@H](N)C[C@@H]2N)[C@H](O)[C@@H](O)[C@@H]1O [Antibiotic 5, kanamycin] | − |

test system: Escherichia coli B-683; assay: Sensitivity of strains: suppression of growth; assay type: cell-based; conditions: Compound (1) 1.0%; antibiotics disc method

| Compound | Suppression of Growth (+/−) |
| --- | --- |
| NC[C@H]1O[C@H](O[C@H]2[C@H](O)[C@@H](O[C@H]3O[C@H](CO)[C@@H](O)[C@H](N)[C@H]3O)[C@H](N)C[C@@H]2N)[C@H](O)[C@@H](O)[C@@H]1O [Antibiotic 5, kanamycin] | + |
